Assays:
[1] = molecular target: T1, Gal-3–8S–Gal-3 (Homo sapiens, UniProt P17931); test: isothermal titration calorimetry; assay type: binding; conditions: 25 °C, pH 7.2, 20 mM phosphate, 10 mM NaCl, 2 mM β-mercaptoethanol; one-set-of-sites model; lyophilized protein
T1 construct: gene LGALS3; engineered covalent homodimer: two Gal-3 CRDs joined by the 33-residue Gal-8S linker peptide in one polypeptide, no tail; recombinant from bacteria
Excerpt: isothermal titration calorimetry on Gal-3–8S–Gal-3

[2] = molecular target: T2, Gal-3 CRD (trGal-3) (Homo sapiens, UniProt P17931); test: isothermal titration calorimetry; assay type: binding; conditions: 25 °C, pH 7.2, 20 mM phosphate, 10 mM NaCl, 2 mM β-mercaptoethanol; one-set-of-sites model; lyophilized protein
T2 construct: gene LGALS3; C-terminal carbohydrate recognition domain only, N-terminal tail proteolytically removed; recombinant from bacteria
Excerpt: isothermal titration calorimetry on Gal-3 CRD (trGal-3)

[3] = molecular target: T3, Gal-3–Gal-3 (Homo sapiens, UniProt P17931); test: isothermal titration calorimetry; assay type: binding; conditions: 25 °C, pH 7.2, 20 mM phosphate, 10 mM NaCl, 2 mM β-mercaptoethanol, one-set-of-sites model, dissolved and dialyzed
T3 construct: gene LGALS3; engineered covalent homodimer: two Gal-3 CRDs fused directly C- to N-terminus in one polypeptide, no tail; recombinant from bacteria
Excerpt: isothermal titration calorimetry on Gal-3–Gal-3

[4] = molecular target: T4, Gal-3 (full-length wild-type human galectin-3) (Homo sapiens, UniProt P17931); test: isothermal titration calorimetry; assay type: binding; conditions: 25 °C, pH 7.2, 20 mM phosphate, 10 mM NaCl, 2 mM β-mercaptoethanol; one-set-of-sites model; lyophilized protein
T4 construct: gene LGALS3; full-length with N-terminal tail (two Ser phosphorylation sites, nine collagen-like repeats) and CRD; monomeric in solution; biotinylated for tissue sections
Excerpt: isothermal titration calorimetry on Gal-3 (full-length wild-type human galectin-3)

[5] = molecular target: T5, Gal-1–Gal-3; test: isothermal titration calorimetry; assay type: binding, Homo sapiens; conditions: 25 °C, pH 7.2, 20 mM phosphate, 10 mM NaCl, 2 mM β-mercaptoethanol; one-set-of-sites model; protein precipitated, dissolved and dialyzed
T5 construct: gene LGALS1; engineered heterodimer in one polypeptide: N-terminal Gal-1 CRD fused directly to Gal-3 CRD; recombinant from bacteria
Excerpt: isothermal titration calorimetry on Gal-1–Gal-3

[6] = molecular target: T6, Gal-3–Gal-1; test: isothermal titration calorimetry; assay type: binding, Homo sapiens; conditions: 25 °C, pH 7.2, 20 mM phosphate, 10 mM NaCl, 2 mM β-mercaptoethanol; one-set-of-sites model; protein precipitated, dissolved and dialyzed
T6 construct: gene LGALS3; engineered heterodimer in one polypeptide: N-terminal Gal-3 CRD fused directly to Gal-1 CRD; recombinant from bacteria
Excerpt: isothermal titration calorimetry on Gal-3–Gal-1

[7] = molecular target: T7, Gal-1–8S–Gal-3; test: isothermal titration calorimetry; assay type: binding, Homo sapiens; conditions: 25 °C, pH 7.2, 20 mM phosphate, 10 mM NaCl, 2 mM β-mercaptoethanol; one-set-of-sites model; lyophilized protein (first of two preparations)
T7 construct: gene LGALS1; engineered heterodimer in one polypeptide: N-terminal Gal-1 CRD, 33-residue Gal-8S linker, Gal-3 CRD; recombinant from bacteria
Excerpt: isothermal titration calorimetry on Gal-1–8S–Gal-3

[8] = molecular target: T8, Gal-3–8S–Gal-1; test: isothermal titration calorimetry; assay type: binding, Homo sapiens; conditions: 25 °C, pH 7.2, 20 mM phosphate, 10 mM NaCl, 2 mM β-mercaptoethanol; one-set-of-sites model; lyophilized protein (first of two preparations)
T8 construct: gene LGALS3; engineered heterodimer in one polypeptide: N-terminal Gal-3 CRD, 33-residue Gal-8S linker, Gal-1 CRD; recombinant from bacteria
Excerpt: isothermal titration calorimetry on Gal-3–8S–Gal-1

[9] = molecular target: T4, Gal-3 (full-length wild-type human galectin-3); test: inhibition of biotinylated lectin staining, fixed murine jejunum sections; conditions: 0.5 mM Lac as part of glycocluster; labelled lectin 4 µg/mL
[10] = molecular target: T3, Gal-3–Gal-3; test: as above; conditions: 0.5 mM Lac as part of glycocluster; labelled lectin 0.25 µg/mL

T4 sequence (P17931 2-250): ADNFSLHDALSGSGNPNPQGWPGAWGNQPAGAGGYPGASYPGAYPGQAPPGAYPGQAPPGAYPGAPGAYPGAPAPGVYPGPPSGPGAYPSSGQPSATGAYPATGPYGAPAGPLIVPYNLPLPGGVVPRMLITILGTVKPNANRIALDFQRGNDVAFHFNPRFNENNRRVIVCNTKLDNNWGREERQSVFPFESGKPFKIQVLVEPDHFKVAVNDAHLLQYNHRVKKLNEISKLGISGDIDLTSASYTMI
T3 sequence (P17931 114-250 limits assumed): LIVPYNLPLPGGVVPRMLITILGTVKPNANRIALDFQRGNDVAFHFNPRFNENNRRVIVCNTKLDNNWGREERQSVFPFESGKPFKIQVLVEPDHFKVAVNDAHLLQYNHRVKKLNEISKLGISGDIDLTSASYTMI
T2 sequence (P17931 114-250 limits assumed): as above
T1 sequence (P17931 114-250 limits assumed): as above

Row | Kd [1] [µM] | Kd [2] [µM] | Kd ([3]; protein precipitated) [µM] | Kd [4] [µM] | Kd [5] [µM] | Kd [6] [µM] | Kd [7] [µM] | Kd [8] [µM] | Kd ([3]; protein precipitated with ammonium sulfate) [µM] | SMILES | staining inhibition [9] | staining inhibition [10]
1 | 157 ± 4.69 | 264 ± 13.7 | 288 ± 3.01 | 222 ± 18.5 |  |  |  |  |  | CC(=O)N[C@H]1C(O)O[C@H](CO)[C@H](O)[C@@H]1O[C@@H]1O[C@H](CO)[C@H](O)[C@H](O)[C@H]1O (some centres unmarked) [Galβ1,3GalNAc] |  | 
2 | 29.4 ± 0.92 | 45.6 ± 1.64 |  | 37.5 ± 0.48 | 59 ± 1.45 | 49.7 ± 0.95 | 48 ± 1.71 | 60 ± 1.1 | 36.2 ± 0.78 | CC(=O)N[C@H]1C(O)O[C@H](CO)[C@@H](O[C@@H]2O[C@H](CO)[C@H](O)[C@H](O)[C@H]2O)[C@@H]1O (some centres unmarked) [LacNAc] |  | 
3 |  |  |  |  |  |  |  |  |  | OC[C@H]1O[C@@H](O[C@H]2[C@H](O)[C@@H](O)[C@H](n3cc(COc4ccc(C(=C(c5ccc(OCc6cn([C@@H]7O[C@H](CO)[C@@H](O[C@@H]8O[C@H](CO)[C@H](O)[C@H](O)[C@H]8O)[C@H](O)[C@H]7O)nn6)cc5)c5ccc(OCc6cn([C@@H]7O[C@H](CO)[C@@H](O[C@@H]8O[C@H](CO)[C@H](O)[C@H](O)[C@H]8O)[C@H](O)[C@H]7O)nn6)cc5)c5ccc(OCc6cn([C@@H]7O[C@H](CO)[C@@H](O[C@@H]8O[C@H](CO)[C@H](O)[C@H](O)[C@H]8O)[C@H](O)[C@H]7O)nn6)cc5)cc4)nn3)O[C@@H]2CO)[C@H](O)[C@@H](O)[C@H]1O [compound 2] | Signal for binding of Gal-3 was strongly reduced in cells of the villi | extent of binding of the Gal-3–Gal-3 homodimer was less potently reduced
